For assay [1], the system named is human malaria parasites. The assay can be described thus: [3H]-hypoxanthine incorporation (de novo nucleic acid synthesis) in infected human red blood cells, Example 2. The assay is classed as cell-based. The note with it: for specific radioactivity incorporation, [^3H]-hypoxanthine: 25 hours, value at 0.1 μM set to 100%. As for the experimental part: Human red blood cells infected at an infection rate of 2% with ring-stage human malaria parasites were cultured in RPMI1640 medium containing AlbuMAX-II at 37° C. and a hematocrit of 4%. 50 μL of a medium containing Alaremycin or any of the other compounds shown in Table 2 was mixed with 50 μL of the culture to the indicated concentrations, to which [^3H]-hypoxanthine was then added, followed by culture in a 96-well plate at 37° C. The repeat number was 2 for each concentration. After 25 hours, they were examined and the amount β-rays released from [^3H]-hypoxanthine incorporated into a nucleic acid with de novo nucleic acid synthesis was measured using a scintillation counter. The averages of the measured values were calculated, and the specific radioactivity incorporation was calculated by setting the measured value in the experiment for which each compound is contained at a final concentration of 0.1 μM, to 100%.

The test system of the next assay is Pseudomonas aeruginosa. The note with it: Non-patent Document 3; cited from earlier work.
Assay [2] has as its system human malaria parasites. The assay is described as follows: [3H]-hypoxanthine incorporation (de novo nucleic acid synthesis) in infected human red blood cells, Example 1. It is filed as cell-based. The note with it: for Specific Radioactivity Incorporation (%) [^3H]-Hypoxanthine: 25 hours, value at 0.01 μM set to 100%. How it is done: (§1) Human red blood cells infected at an infection rate of 2% with ring-stage human malaria parasites were cultured in RPMI1640 medium containing AlbuMAX-II (Invitrogen) at 37° C. and a hematocrit of 4%. 50 μL of the culture was mixed with 50 μL of a medium containing Alaremycin to the concentrations shown in Table 1, to which [^3H]-hypoxanthine and [^14C]-isoleucine isoleucine were then added, followed by culture in a 96-well plate at 37° C. The repeat number was 2 for each concentration. After 25 hours, they were examined and the amount of (3-rays released from [^3H]-hypoxanthine incorporated into a nucleic acid with de novo nucleic acid synthesis or from [^14C]-isoleucine incorporated into a protein with de novo protein synthesis was measured using a scintillation counter. The averages of the measured values were calculated, and the specific radioactivity incorporation was calculated by setting the measured value in the experiment for which Alaremycin was contained at a final concentration of 0.01 μM, to 100%. The results are shown in Table 1.

Assay [3] has as its target porphobilinogen synthase (PBGS) (Pseudomonas aeruginosa, UniProt Q59643). The settings on record: Non-patent Document 3; cited from earlier work.
The test system of assay [4] is human malaria parasites. The assay can be described thus: [14C]-isoleucine incorporation (de novo protein synthesis) in infected human red blood cells, Example 1. It is filed as cell-based. The settings on record: 25 hours, value at 0.01 μM set to 100%. How it is done:
as §1

The test system of another assay is Escherichia coli. The note with it: Non-patent Documents 2, 3; cited from earlier work.

Sequence of porphobilinogen synthase (PBGS) (Q59643 whole entry): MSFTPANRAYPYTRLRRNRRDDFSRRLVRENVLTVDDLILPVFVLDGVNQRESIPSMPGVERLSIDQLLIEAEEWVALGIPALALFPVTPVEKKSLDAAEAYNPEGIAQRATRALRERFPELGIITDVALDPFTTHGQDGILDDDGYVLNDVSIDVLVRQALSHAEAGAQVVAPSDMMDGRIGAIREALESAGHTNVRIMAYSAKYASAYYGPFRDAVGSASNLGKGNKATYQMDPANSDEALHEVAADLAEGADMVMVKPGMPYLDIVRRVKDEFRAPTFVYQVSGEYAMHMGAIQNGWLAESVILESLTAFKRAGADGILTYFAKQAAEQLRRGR

On to `O=C(O)CCC(=O)CCC(=O)CCC(=O)O` [4,7-Dioxosebacic acid, 4,7-dioxosebacic acid], for which the “specific radioactivity incorporation, [^3H]-hypoxanthine” value with human malaria parasites [1] (0.1 μM) is recorded as 100%; with human malaria parasites [1] (1 μM), 110.3%; in the assay on human malaria parasites [1] (5 μM), 106.9%; in the assay with human malaria parasites [1] (10 μM), 103.4%; in the assay with human malaria parasites [1] (50 μM) it was 108%; in the assay on human malaria parasites [1] (100 μM), 102.1%. Besides, the “specific radioactivity incorporation, [^3H]-hypoxanthine” value in the assay with human malaria parasites [1] (500 μM) was found to be 106.8%; with human malaria parasites [1] (1000 μM), 100.1%; in the assay with human malaria parasites [1] (5000 μM), 100%; in the assay with human malaria parasites [1] (10000 μM), 97.1%.

As to `NCC(=O)CCC(=O)O` [5-Aminolevulinic acid, 5-aminolevulinic acid], the “specific radioactivity incorporation, [^3H]-hypoxanthine” value in the assay with human malaria parasites [1] (0.1 μM) is on record as 100%; with human malaria parasites [1] (1 μM), 102.7%; with human malaria parasites [1] (5 μM), 108.5%; with human malaria parasites [1] (10 μM) it was 104.4%; in the assay on human malaria parasites [1] (50 μM) it was 97.3%; in the assay with human malaria parasites [1] (100 μM) it was 101.2%.

In the case of `C=C(NC(C)=O)C(=O)CCC(=O)O` [Alaremycin, 5-acetamido-4-oxo-5-hexenoic acid], the “specific radioactivity incorporation, [^3H]-hypoxanthine” value in the assay on human malaria parasites [1] (0.1 μM) was determined as 100%; with human malaria parasites [1] (1 μM), 100.5%; in the assay with human malaria parasites [1] (5 μM), 90.7%; with human malaria parasites [1] (10 μM) it was 83.8%; in the assay on human malaria parasites [1] (50 μM), 2.8%; with human malaria parasites [1] (100 μM), 1.6%. In addition, in the assay with human malaria parasites [1] (compared to succinylacetone and 4,7-dioxosebacic acid), the “inhibition of nucleic acid metabolism in human malaria parasites (in words)” value was “sufficiently inhibit nucleic acid metabolism in human malaria parasites in a significantly low concentration”. Moreover, the “antibacterial activity (in words)” value in the assay on Pseudomonas aeruginosa and in the assay on Escherichia coli was “has antibacterial activities” throughout. For the same molecule, the “Specific Radioactivity Incorporation (%) [^3H]-Hypoxanthine” value with human malaria parasites [2] (0.01 μM) was 100%; in the assay with human malaria parasites [2] (0.1 μM), 100.4%; with human malaria parasites [2] (1 μM) it was 92.8%; in the assay with human malaria parasites [2] (5 μM) it was 84.8%; in the assay with human malaria parasites [2] (10 μM), 66.8%; in the assay with human malaria parasites [2] (50 μM), 2.8%. Besides, the “Specific Radioactivity Incorporation (%) [^3H]-Hypoxanthine” value in the assay with human malaria parasites [2] (100 μM) amounted to 1.5%; in the assay on human malaria parasites [2] (200 μM), 1.1%. In addition, the inhibition at 15 µM with human malaria parasites [2] (Homo sapiens, Erythrocyte, 15 μM, rough statement for both [^3H]-hypoxanthine and [^14C]-isoleucine, read-out: inhibition of radioactivity incorporation) was approximately 50%. Further, the inhibition at 50 µM in the assay on human malaria parasites [2] (Homo sapiens, Erythrocyte, 50 μM, rough statement for both [^3H]-hypoxanthine and [^14C]-isoleucine, read-out: inhibition of radioactivity incorporation) was not below 95%. The “inhibition of nucleic acid metabolism and protein synthesis in human malaria parasites (in words)” value with human malaria parasites [2] (measured as in Example 1, both nucleic acid and protein synthesis) was “inhibited by Alaremycin in a concentration-dependent manner”. Moreover, the “inhibition of porphobilinogen synthase (in words)” value in assay [3] is “act as an inhibitor of porphobilinogen synthase (PBGS)”. For the same molecule, the “Specific Radioactivity Incorporation (%) [^14C]-Isoleucine” value is listed as 100% in the assay on human malaria parasites [4] (0.01 μM); 93.3% in the assay with human malaria parasites [4] (0.1 μM); 88.8% with human malaria parasites [4] (1 μM); 84.7% with human malaria parasites [4] (5 μM); 64.8% in the assay on human malaria parasites [4] (10 μM); 3.6% in the assay with human malaria parasites [4] (50 μM). In addition, the “Specific Radioactivity Incorporation (%) [^14C]-Isoleucine” value with human malaria parasites [4] (100 μM) is 2.1%; in the assay with human malaria parasites [4] (200 μM), 1%.

For the molecule `CC(=O)CC(=O)CCC(=O)O` [Succinylacetone, 4,6-dioxoheptanoic acid], the “specific radioactivity incorporation, [^3H]-hypoxanthine” value with human malaria parasites [1] (0.1 μM) turned out to be 100%; in the assay with human malaria parasites [1] (1 μM) it was 94.4%; in the assay with human malaria parasites [1] (5 μM) it was 94.3%; in the assay on human malaria parasites [1] (10 μM), 94.7%; with human malaria parasites [1] (50 μM), 99.8%; in the assay on human malaria parasites [1] (100 μM), 90.9%. Also, the “specific radioactivity incorporation, [^3H]-hypoxanthine” value was 94.4% in the assay with human malaria parasites [1] (500 μM), 88.6% in the assay with human malaria parasites [1] (1000 μM), 58.8% with human malaria parasites [1] (5000 μM) and 21.4% in the assay with human malaria parasites [1] (10000 μM).
